Measurements published in PMC5099944, “Design, synthesis and biological evaluation of hybrids of β-carboline and salicylic acid as potential anticancer and apoptosis inducing agents” (Scientific Reports, 2016).
Where two headings read alike, the source gives them in different places.

What was measured:
Hep G2 cells = test: MTT assay, proliferation of Hep G2 cells; assay type: cell-based; settings: Homo sapiens, HepG2, 48 h, read-out: In vitro cytotoxicity (IC50) Hep G2
Procedure: (§1) The in vitro antitumor activities of the synthesized compounds 7a-l and 8a-l against five human cancer cells were evaluated in MTT assays using 5-fluorouracil (5-FU) and harmine as positive controls. These cells are human hepatocellular carcinoma cells (SMMC-7721 and Hep G2), human colon cancer cell lines (HCT116), human bladder carcinoma cells (EJ), and human lung cancer cells (H460).
(§2) Hepatocellular carcinoma cells (SMMC-7721 and Hep G2), Human colon cancer cell lines (HCT116), human bladder carcinoma cells (EJ) or human lung cancer cells (H460) at 10^4 cells per well were cultured in 10% FBS DMEM in 96-well flat-bottom microplates overnight. The cells were incubated in triplicate with, or without, different concentrations of each test compound for 48 h. During the last 4 h incubation, 30 μL of tetrazolium dye (MTT) solution (5 mg mL^−1) was added to each well. The resulting MTT-formazan crystals were dissolved in 150 μL DMSO, and absorbance was measured spectrophotometrically at 570 nm using an ELISA plate reader. The inhibition induced by each test compound at the indicated concentrations was expressed as a percentage. The concentration required for 50% inhibition (IC50) was calculated using the software (GraphPadPrism Version 4.03).

SMMC-7721 cells = test: MTT assay, proliferation of SMMC-7721 cells; assay type: cell-based, human
Procedure: as §1, §2

H460 cells = test: MTT assay, proliferation of H460 cells; assay type: cell-based; settings: NCI-H460, 48 h, H460 human lung cancer cells, read-out: In vitro cytotoxicity (IC50) H460
Procedure: as §1, §2

HCT116 cells = test: MTT assay, proliferation of HCT116 cells; assay type: cell-based; settings: Homo sapiens, HCT-116, 48 h, read-out: In vitro cytotoxicity (IC50) HCT116
Procedure: as §1, §2

EJ cells = test: MTT assay, proliferation of EJ cells; assay type: cell-based; settings: 48 h, EJ human bladder carcinoma cells, read-out: In vitro cytotoxicity (IC50) EJ
Procedure: as §1, §2

[1] = test system: human cancer cells (SMMC-7721, Hep G2, HCT116, EJ, H460); test: MTT assay, summary statements across several human cancer cell lines; assay type: cell-based; settings: Homo sapiens; cancer cell lines tested (SMMC-7721, Hep G2, HCT116); MTT; read-out: Antitumor activities (IC50) of capped analogs
Procedure: as §1, §2

[2] = Homo sapiens, SMMC-7721, 48 h, read-out: In vitro cytotoxicity (IC50) SMMC-7721, MTT assay, 48 h, SMMC-7721 human hepatocellular carcinoma cells

Row | IC50 [1] [µM] | Compound | IC50 (Hep G2 cells) [µM] | IC50 (SMMC-7721 cells; [2]) [µM] | IC50 (H460 cells) [µM] | IC50 (HCT116 cells) [µM] | IC50 (EJ cells) [µM] | IC50 (SMMC-7721 cells; human, 48 h) [µM] | inhibition at 25 µM (SMMC-7721 cells; Homo sapiens, SMMC-7721, 25 μM, 48 h, MTT assay, read-out: Inhibition of SMMC-7721 cell proliferation) [%] | IC50 (SMMC-7721 cells; Homo sapiens, SMMC-7721, 48 h, read-out: In vitro cytotoxicity (IC50) SMMC-7721) [µM]
1 | – | Cc1ccccc1C(=O)NCCCNC(=O)c1cc2c(cn1)[nH]c1ccccc12 [7a, N-(3-(2-Methylbenzamido)propyl)-9H-pyrido[3,4-b]indole-3-carboxamide] | 32 | 34.7 | 31.1 | 36 | 25.3 | – | – | –
2 | – | Cc1ccccc1C(=O)NCCCNC(=O)c1cc2c([nH]c3ccccc32)c(C)n1 [7b, 1-Methyl-N-(3-(2-methylbenzamido)propyl)-9H-pyrido[3,4-b]indole-3-carboxamide] | 23.7 | 27.3 | 30.5 | 28.9 | 23.2 | – | – | –
3 | – | COc1ccc(-c2nc(C(=O)NCCCNC(=O)c3ccccc3C)cc3c2[nH]c2ccccc23)cc1 [7c, 1-(4-Methoxyphenyl)-N-(3-(2-methylbenzamido)propyl)-9H-pyrido[3,4-b]indole-3-carboxamide] | > 50 | > 50 | > 50 | > 50 | > 50 | – | – | –
4 | – | Cc1ccccc1C(=O)NCCCCNC(=O)c1cc2c(cn1)[nH]c1ccccc12 [7d, N-(4-(2-Methylbenzamido)butyl)-9H-pyrido[3,4-b]indole-3-carboxamide] | 19.1 | 24.3 | 23.2 | 21.4 | 18.4 | – | – | –
5 | – | Cc1ccccc1C(=O)NCCCCNC(=O)c1cc2c([nH]c3ccccc32)c(C)n1 [7e, 1-Methyl-N-(4-(2-methylbenzamido)butyl)-9H-pyrido[3,4-b]indole-3-carboxamide] | 15.2 | 17.8 | 20.1 | 14.8 | 13.3 | – | – | –
6 | – | COc1ccc(-c2nc(C(=O)NCCCCNC(=O)c3ccccc3C)cc3c2[nH]c2ccccc23)cc1 [7f, 1-(4-Methoxyphenyl)-N-(4-(2-methylbenzamido)butyl)-9H-pyrido[3,4-b]indole-3-carboxamide] | 31.2 | 25.6 | 38.4 | 32.6 | 29.4 | – | – | –
7 | – | Cc1ccccc1C(=O)NCCCCCNC(=O)c1cc2c(cn1)[nH]c1ccccc12 [7g, N-(5-(2-Methylbenzamido)pentyl)-9H-pyrido[3,4-b]indole-3-carboxamide] | 14.3 | 15.9 | 19.4 | 17.1 | 15.3 | – | – | –
8 | – | Cc1ccccc1C(=O)NCCCCCNC(=O)c1cc2c([nH]c3ccccc32)c(C)n1 [7h, 1-Methyl-N-(5-(2-methylbenzamido)pentyl)-9H-pyrido[3,4-b]indole-3-carboxamide] | 11.3 | 12.8 | 13.2 | 15.8 | 12.1 | – | – | –
9 | – | COc1ccc(-c2nc(C(=O)NCCCCCNC(=O)c3ccccc3C)cc3c2[nH]c2ccccc23)cc1 [7i, 1-(4-Methoxyphenyl)-N-(5-(2-methylbenzamido)pentyl)-9H-pyrido[3,4-b]indole-3-carboxamide] | > 50 | 38.2 | 27.5 | 45.2 | > 50 | – | – | –
10 | – | Cc1ccccc1C(=O)NCCCCCCNC(=O)c1cc2c(cn1)[nH]c1ccccc12 [7j, N-(6-(2-Methylbenzamido)hexyl)-9H-pyrido[3,4-b]indole-3-carboxamide] | 28 | 23.3 | 15.3 | 26.6 | 18.2 | – | – | –
11 | – | Cc1ccccc1C(=O)NCCCCCCNC(=O)c1cc2c([nH]c3ccccc32)c(C)n1 [7k, 1-Methyl-N-(6-(2-methylbenzamido)hexyl)-9H-pyrido[3,4-b]indole-3-carboxamide] | 16.9 | 11.3 | 14.3 | 15.3 | 13.7 | – | – | –
12 | – | COc1ccc(-c2nc(C(=O)NCCCCCCNC(=O)c3ccccc3C)cc3c2[nH]c2ccccc23)cc1 [7l, 1-(4-Methoxyphenyl)-N-(6-(2-methylbenzamido)hexyl)-9H-pyrido[3,4-b]indole-3-carboxamide] | – | > 50 | > 50 | > 50 | – | – | – | –
13 | – | O=C(NCCCNC(=O)c1ccccc1O)c1cc2c(cn1)[nH]c1ccccc12 [8a, N-(3-(2-Hydroxybenzamido)propyl)-9H-pyrido[3,4-b]indole-3-carboxamide] | 18.9 | 22.6 | 25.5 | 20.1 | 15.9 | – | – | –
14 | – | Cc1nc(C(=O)NCCCNC(=O)c2ccccc2O)cc2c1[nH]c1ccccc12 [8b, N-(3-(2-Hydroxybenzamido)propyl)−1-methyl-9H-pyrido[3,4-b]indole-3-carboxamide] | – | 19.1 | 22.2 | 13.6 | 15.3 | – | – | –
15 | – | COc1ccc(-c2nc(C(=O)NCCCNC(=O)c3ccccc3O)cc3c2[nH]c2ccccc23)cc1 [8c, N-(3-(2-Hydroxybenzamido)propyl)-1-(4-methoxyphenyl)-9H-pyrido[3,4-b]indole-3-carboxamide] | 45.8 | 36 | > 50 | 33.2 | 38.6 | – | – | –
16 | – | O=C(NCCCCNC(=O)c1ccccc1O)c1cc2c(cn1)[nH]c1ccccc12 [8d, N-(4-(2-Hydroxybenzamido)butyl)-9H-pyrido[3,4-b]indole-3-carboxamide] | 11.7 | 13 | 15.2 | 15.9 | 12.1 | – | – | –
17 | – | Cc1nc(C(=O)NCCCCNC(=O)c2ccccc2O)cc2c1[nH]c1ccccc12 [8e, N-(4-(2-Hydroxybenzamido)butyl)−1-methyl-9H-pyrido[3,4-b]indole-3-carboxamide] | 9.26 | 7.93 | 11.9 | 9.36 | 9.01 | – | – | –
18 | – | COc1ccc(-c2nc(C(=O)NCCCCNC(=O)c3ccccc3O)cc3c2[nH]c2ccccc23)cc1 [8f, N-(4-(2-Hydroxybenzamido)butyl)-1-(4-methoxyphenyl)-9H-pyrido[3,4-b]indole-3-carboxamide] | 17.7 | 20.1 | 22.8 | 18.2 | 15 | – | – | –
19 | – | O=C(NCCCCCNC(=O)c1ccccc1O)c1cc2c(cn1)[nH]c1ccccc12 [8g, N-(5-(2-Hydroxybenzamido)pentyl)-9H-pyrido[3,4-b]indole-3-carboxamide] | 9.12 | 10.7 | 12.5 | 9.18 | 8.71 | – | – | –
20 | – | COc1ccc(-c2nc(C(=O)NCCCCCNC(=O)c3ccccc3O)cc3c2[nH]c2ccccc23)cc1 [8i, N-(5-(2-Hydroxybenzamido)pentyl)-1-(4-methoxyphenyl)-9H-pyrido[3,4-b]indole-3-carboxamide] | 30.8 | 46.8 | 38.5 | > 50 | > 50 | – | – | –
21 | – | O=C(NCCCCCCNC(=O)c1ccccc1O)c1cc2c(cn1)[nH]c1ccccc12 [8j, N-(6-(2-Hydroxybenzamido)hexyl)-9H-pyrido[3,4-b]indole-3-carboxamide] | 17.2 | 13.4 | 21.5 | 18.6 | 16.5 | – | – | –
22 | – | Cc1nc(C(=O)NCCCCCCNC(=O)c2ccccc2O)cc2c1[nH]c1ccccc12 [8k, N-(6-(2-Hydroxybenzamido)hexyl)-1-methyl-9H-pyrido[3,4-b]indole-3-carboxamide] | 13.6 | 10.1 | 11.4 | 10.7 | 13.2 | – | – | –
23 | – | COc1ccc(-c2nc(C(=O)NCCCCCCNC(=O)c3ccccc3O)cc3c2[nH]c2ccccc23)cc1 [8l, N-(6-(2-Hydroxybenzamido)hexyl)-1-(4-methoxyphenyl)-9H-pyrido[3,4-b]indole-3-carboxamide] | 42 | > 50 | > 50 | > 50 | – | – | – | –
24 | > 50 | CC(=O)NCCCCCNC(=O)c1cc2c([nH]c3ccccc32)c(C)n1 [10a, N-(5-acetamidopentyl)-1-methyl-9H-pyrido[3,4-b]indole-3-carboxamide] | > 50 | 58.6 ± 6.7 | – | > 50 | – | > 50 | – | –
25 | > 50 | Cc1nc(C(=O)NCCCCCNC(=O)c2ccccc2)cc2c1[nH]c1ccccc12 [10b, N-(5-benzamidopentyl)-1-methyl-9H-pyrido[3,4-b]indole-3-carboxamide] | > 50 | > 100 | – | > 50 | – | > 50 | – | –
26 | – | O=C(O)c1ccccc1O [SA, salicylic acid] | – | – | – | – | – | – | ~15 | –
27 | – | COc1ccc2c(c1)[nH]c1c(C)nccc12 [harmine, reference compound] | 55.3 | – | – | 46.7 | – | – | – | 49.1
